Source: patent publication US8618063B2, “Method for treating a synucleinopathy” (The Board of Trustees of the University of Illinois, priority 2008, dated 2013)
Entries after “also recorded” stand apart in the source; their conditions may differ. Read-outs that look alike come from different tables or passages of the source. Blank lines part the entries; values can stand above or below the compound they belong to.

Legend:
[1] = test system: Src/Fyn effects on fast axonal transport; assay: Isolated axoplasm: blocking of Src/Fyn effects on fast axonal transport; format: cell-based, squid Loligo pealeii; settings: for blocking of Src/Fyn actions on fast axonal transport: concentration not given
Procedure: (§1) Axoplasm was extruded from giant axons of the squid Loligo pealeii (Marine Biological Laboratory) according to established methods (Brady, et al. (1985) Cell Motil. 5(2):81-101). Axons were 400-600 μm in diameter and provided ≈5 μl of axoplasm per axon. Wild-type α-synuclein or α-synuclein with point mutations associated with familial Parkinson's disease (Ala30Pro or Ala53Thr), MPP+, enzymes or inhibitors were diluted into X/2 buffer (175 mM potassium aspartate, 65 mM taurine, 35 mM betaine, 25 mM glycine, 10 mM HEPES, 6.5 mM MgCl2, 5 mM EGTA, 1.5 mM CaCl2, 0.5 mM glucose, pH 7.2) supplemented with 2-5 mM ATP and 20 μl of this mix was added to perfusion chambers (Brady, et al. (1985) supra). Preparations were analyzed on a ZEISS AXIOMAT with a 100×, 1.3 na objective, and DIC optics. Hamamatsu Argus 20 and Model 2400 CCD camera were used for image processing and analysis. Organelle velocities were measured with a Photonics Microscopy C2117 video manipulator (Hamamatsu).
Screening of nonreceptor tyrosine kinases included Src- and Abl-family members. […] Given that neither kinesin nor dynein are known to have tyrosine phosphorylations, the ability of a broad spectrum PKC inhibitor Gö6976 was included in the assay to block the action of Fyn. Gö6976 inhibition of PKC abolished actions of Src/Fyn on fast axonal transport (FIG. 1D), as did perfusion of the MARCKS peptide.

[2] = test system: α-synuclein mutant Ala30Pro effects on fast axonal transport; assay: Isolated axoplasm: blocking of mutant α-synuclein (Ala30Pro) effects on fast axonal transport; format: cell-based, squid Loligo pealeii; settings: coperfused with α-synuclein mutant Ala30Pro, FIG. 3
Procedure: as §1
Accordingly, these inhibitors were coperfused with pathological α-synuclein mutant Ala30Pro and fast axonal transport was monitored. […] Similarly, the effects of α-synuclein mutant Ala30Pro could be blocked by a PKCmu peptide substrate (FIG. 3B) and an inhibitor of Src-Family Tyrosine Kinases (PP2) (FIG. 3C).

[3] = test system: LB filaments (wild-type α-synuclein) effects on fast axonal transport; assay: Isolated axoplasm: blocking of LB filament effects on fast axonal transport; format: cell-based, squid Loligo pealeii; settings: FIG. 4B
Procedure: as §1
Plasmids containing wild-type α-synuclein; Ala30Pro α-synuclein and Ala53Thr α-synuclein for conventional expression in bacteria were used to generate synuclein protein used in axoplasm and squid giant synapse preparations. […] The ability of LB filaments to affect retrograde axonal transport in isolated axoplasm was evaluated, as were the effects of wild-type LB filaments on kinases.

[4] = test system: MPP+ effects on fast axonal transport; assay: Isolated axoplasm: blocking of MPP+ effects on fast axonal transport; format: cell-based, squid Loligo pealeii; settings: FIG. 5B
Procedure: as §1
(§2) MPTP/MPP+ is the best characterized example of toxin-induced Parkinson's disease. The effects of MPP+ on fast axonal transport were examined in axoplasm as was dynein phosphorylation in cells. […] Based on reports that MPP+ could activate caspase3 (Turmel, et al. (2001) Mov. Disord. 16:185-9) and that caspase3 can activate a PKC by proteolytic cleavage (Kaul, et al. (2003) Eur. J. Neurosci. 18:1387-401), the ability of a caspase3 inhibitor to block effects of MPP+ on fast axonal transport was evaluated. […] Further, perfusion with Caspase 3 affected retrograde transport in a manner similar to PKC and MPP+ (retrograde transport=1.462±0.016 μm/sec).

[5] = test system: phosphorylation of DIC; assay: NGF/BDNF (Trk receptor) induced shift of dynein intermediate chain; format: cell-based; settings: Trk neurotrophin receptors; Gö6976 at 100 nM
From the text: Specifically, NGF and BDNF binding to Trk neurotrophin receptors caused a shift in the apparent molecular weight of dynein intermediate chain (DIC). To identify the kinase pathway involved in this change, more than 30 different kinase and phosphatase inhibitors were screened.

[6] = test system: DIC phosphorylation; assay: Reelin receptor stimulated DIC phosphorylation; format: cell-based
[7] = test system: DIC phosphorylation; assay: Labeling studies with MPP+ treated cortical neurons; format: cell-based; settings: MPP+ treated cortical neurons
Procedure: One mCi ^32P phosphate (ICN) was added per dish and incubated for 4 hours. Medium was discarded, cells homogenized in 1 ml of ROLB buffer and processed accordingly to standard methods (Morfini, et al. (2004) supra). Axoplasms were prepared as for video microscopy, but 1 mCi of γ-^32P-ATP was added. After 50 minutes incubation, axoplasms were homogenized in ROLB buffer. A 10 μl aliquot of lysate was precipitated with 15% TCA and radioactivity incorporated into protein determined by scintillation counting. Aliquots of equal counts were used for kinesin immunoprecipitation with 10 μg of 74.1 antibody and Protein G-agarose beads (Pierce). Immunoprecipitates were separated by SDS-PAGE, dried and exposed in a PHOSPHORIMAGER cassette, then scanned and quantified on a TYPHOON (Amersham/Molecular Dynamics).
as §2

[8] = test system: Ala30Pro mutant α-synuclein induced failure of neurotransmission; assay: Squid giant synapse: prevention of Ala30Pro α-synuclein induced failure of neurotransmission; format: cell-based; settings: co-injection / coperfusion with Ala30Pro α-synuclein
Procedure: If they both work by activating PKC and increasing retrograde transport, they might affect availability of synaptic vesicle components in presynaptic terminals. Accordingly, either wild-type α-synuclein, Ala30Pro α-synuclein, or MPP+ were injected into the presynaptic side of the squid giant synapse as described for synaptic vesicles and synapsin (McGuinness, et al. (1989) J. Neurosci. 9:4138-4149; Llinas, et al. (1989) Proc. Nat. Acad. Sci. USA 86:5656-5660). This preparation has been used to evaluate the effects of reagents on presynaptic function by injecting, then stimulating the presynaptic side while recording intracellularly on both pre- and post-synaptic sides (Llinas, et al. (2004) Proc. Natl. Acad. Sci. USA 101:17855-60; Sugimori, et al. (1998) Neuroscience 86:39-51).

[9] = target: PKCα (Homo sapiens, UniProt P17252); settings: cited from earlier work
[10] = target: PKCβ (Homo sapiens, UniProt P05771); settings: cited from earlier work
Chain of PKCβ (P05771 whole entry, species assumed): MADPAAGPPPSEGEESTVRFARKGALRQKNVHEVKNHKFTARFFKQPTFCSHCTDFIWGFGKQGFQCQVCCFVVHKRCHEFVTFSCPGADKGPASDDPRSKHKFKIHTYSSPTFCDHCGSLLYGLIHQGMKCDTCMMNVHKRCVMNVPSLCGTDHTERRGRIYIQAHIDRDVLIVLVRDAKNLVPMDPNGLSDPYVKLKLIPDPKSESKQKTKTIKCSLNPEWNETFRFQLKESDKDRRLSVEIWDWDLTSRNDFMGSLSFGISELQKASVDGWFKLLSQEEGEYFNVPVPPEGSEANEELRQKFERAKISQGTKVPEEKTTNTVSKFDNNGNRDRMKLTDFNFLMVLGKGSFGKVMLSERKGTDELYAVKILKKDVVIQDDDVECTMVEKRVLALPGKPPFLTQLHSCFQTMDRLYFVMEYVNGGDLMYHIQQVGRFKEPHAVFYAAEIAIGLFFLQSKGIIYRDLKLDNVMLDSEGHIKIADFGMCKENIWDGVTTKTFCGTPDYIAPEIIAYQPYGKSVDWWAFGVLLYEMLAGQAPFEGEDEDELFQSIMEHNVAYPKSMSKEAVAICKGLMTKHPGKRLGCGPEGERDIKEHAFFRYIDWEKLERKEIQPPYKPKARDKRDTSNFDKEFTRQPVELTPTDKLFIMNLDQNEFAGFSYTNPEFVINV

[11] = target: PKCγ (Homo sapiens, UniProt P05129); settings: cited from earlier work
[12] = target: PKCδ (Homo sapiens, UniProt Q05655); settings: cited from earlier work
Chain of PKCδ (Q05655 whole entry): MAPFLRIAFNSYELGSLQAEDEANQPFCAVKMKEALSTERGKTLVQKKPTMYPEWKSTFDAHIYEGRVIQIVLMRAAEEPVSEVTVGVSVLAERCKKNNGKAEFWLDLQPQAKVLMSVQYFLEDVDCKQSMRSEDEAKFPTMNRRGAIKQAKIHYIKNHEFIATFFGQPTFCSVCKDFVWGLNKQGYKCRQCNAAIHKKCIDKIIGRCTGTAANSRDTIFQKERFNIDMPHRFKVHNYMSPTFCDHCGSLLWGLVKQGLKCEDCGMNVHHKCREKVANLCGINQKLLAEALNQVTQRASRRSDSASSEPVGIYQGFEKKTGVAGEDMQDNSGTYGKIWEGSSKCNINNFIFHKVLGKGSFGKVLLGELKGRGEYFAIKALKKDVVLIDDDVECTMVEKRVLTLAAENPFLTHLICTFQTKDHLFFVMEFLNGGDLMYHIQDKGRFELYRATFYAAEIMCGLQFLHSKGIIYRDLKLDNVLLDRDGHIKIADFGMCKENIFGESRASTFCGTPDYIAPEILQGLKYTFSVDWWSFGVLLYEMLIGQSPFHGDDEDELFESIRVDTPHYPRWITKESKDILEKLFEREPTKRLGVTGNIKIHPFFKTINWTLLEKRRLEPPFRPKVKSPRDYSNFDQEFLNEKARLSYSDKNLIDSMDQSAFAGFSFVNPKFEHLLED

[13] = target: T1, PKCζ (Homo sapiens, UniProt Q05513); settings: cited from earlier work
T1 sequence (Q05513 1-592): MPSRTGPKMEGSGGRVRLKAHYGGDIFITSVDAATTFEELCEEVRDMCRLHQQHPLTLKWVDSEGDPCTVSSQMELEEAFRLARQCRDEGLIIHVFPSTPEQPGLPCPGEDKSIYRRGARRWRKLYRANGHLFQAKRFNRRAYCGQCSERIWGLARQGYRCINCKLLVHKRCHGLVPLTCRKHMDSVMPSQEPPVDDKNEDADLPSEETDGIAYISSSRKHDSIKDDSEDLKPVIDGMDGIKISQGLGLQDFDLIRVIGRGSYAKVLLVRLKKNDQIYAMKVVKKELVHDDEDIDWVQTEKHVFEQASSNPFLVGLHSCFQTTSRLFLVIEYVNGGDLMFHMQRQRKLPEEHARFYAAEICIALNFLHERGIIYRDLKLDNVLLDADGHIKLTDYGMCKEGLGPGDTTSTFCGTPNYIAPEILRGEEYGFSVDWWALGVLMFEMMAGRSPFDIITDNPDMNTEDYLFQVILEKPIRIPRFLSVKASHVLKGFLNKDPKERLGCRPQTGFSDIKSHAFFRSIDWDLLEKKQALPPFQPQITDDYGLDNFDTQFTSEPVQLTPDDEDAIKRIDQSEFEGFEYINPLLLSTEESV

[14] = target: T2, PKCμ (Homo sapiens, UniProt Q15139); settings: cited from earlier work
T2 sequence (Q15139 1-912): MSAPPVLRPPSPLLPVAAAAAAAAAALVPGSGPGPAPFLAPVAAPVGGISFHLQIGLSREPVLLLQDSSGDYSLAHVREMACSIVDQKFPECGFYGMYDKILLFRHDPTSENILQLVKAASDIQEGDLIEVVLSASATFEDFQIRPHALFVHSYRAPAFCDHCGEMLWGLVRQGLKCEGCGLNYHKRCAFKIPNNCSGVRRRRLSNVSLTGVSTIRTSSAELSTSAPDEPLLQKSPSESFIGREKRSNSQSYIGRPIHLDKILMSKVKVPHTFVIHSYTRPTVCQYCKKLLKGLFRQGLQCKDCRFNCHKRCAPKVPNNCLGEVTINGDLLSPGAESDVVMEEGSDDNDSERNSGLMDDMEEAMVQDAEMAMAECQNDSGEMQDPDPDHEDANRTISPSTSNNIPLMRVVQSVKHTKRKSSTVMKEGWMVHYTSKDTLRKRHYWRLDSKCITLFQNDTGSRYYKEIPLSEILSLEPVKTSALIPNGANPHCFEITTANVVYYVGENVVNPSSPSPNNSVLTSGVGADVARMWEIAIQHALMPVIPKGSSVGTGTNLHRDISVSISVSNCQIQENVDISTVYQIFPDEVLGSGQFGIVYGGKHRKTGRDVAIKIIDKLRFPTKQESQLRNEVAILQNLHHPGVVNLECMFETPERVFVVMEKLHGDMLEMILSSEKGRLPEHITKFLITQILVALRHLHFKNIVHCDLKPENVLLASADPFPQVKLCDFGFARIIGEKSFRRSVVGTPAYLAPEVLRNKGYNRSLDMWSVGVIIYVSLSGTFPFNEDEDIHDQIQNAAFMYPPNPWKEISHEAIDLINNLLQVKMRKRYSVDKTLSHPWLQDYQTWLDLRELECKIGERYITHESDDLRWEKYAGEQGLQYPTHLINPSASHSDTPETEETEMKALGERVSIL

[15] = target: T3, PKD (Homo sapiens, UniProt Q15139); settings: read-out: PKD autophosphorylation IC50; cited from earlier work
T3 sequence (Q15139 1-912): T2 sequence (Q15139 1-912)

[16] = target: T3, PKD; settings: read-out: PKD phosphorylation of the exogenous substrate syntide-2 IC50; cited from earlier work
[17] = test system: cPKC-alpha, cPKC-beta, cPKC-gamma, nPKC-delta and nPKC-epsilon, and aPKC-zeta; settings: cited from earlier work
[18] = test system: fast axonal transport; assay: Motility studies in isolated axoplasm: effect of perfused substance on fast axonal transport; format: cell-based, squid Loligo pealeii; settings: substance perfused alone into isolated axoplasm
Procedure: as §1

blocking of NGF/BDNF induced shift (phosphorylation) of DIC [5]: able to block
blocking of Reelin receptor stimulated increase in DIC phosphorylation [6]: blocked
Compound: Cn1c2ccccc2c2c3c(c4c5ccccc5n(CCC#N)c4c21)CNC3=O [Gö6976, 5,6,7,13-Tetrahydro-13-methyl-5-oxo-12H-indolo[2,3-a]pyrrolo[3,4-c]carbazole-12-propanenitrile]
blocking of Fyn effects on fast axonal transport ([1]; 100 nM inhibitor, FIG. 1D): blocked
blocking of Src/Fyn actions on fast axonal transport [1]: inhibited; also recorded: abolished
blocking of familial Parkinson's disease mutant α-synuclein (Ala30Pro) effects on fast axonal transport [2]: effective at blocking; also recorded: prevented
blocking of LB filament (wild-type α-synuclein) effects on fast axonal transport [3]: blocked
blocking of MPP+ effects on fast axonal transport [4]: blocked
blocking of MPP+ induced increase in DIC phosphorylation [7]: blocked
prevention of Ala30Pro α-synuclein effect on neurotransmission [8]: prevented

blocking of NGF/BDNF induced shift (phosphorylation) of DIC [5]: failed to block
Compound: COc1ccc2c(c1)c(C1=C(c3c[nH]c4ccccc34)C(=O)NC1=O)cn2CCCN(C)C [Gö6983]
blocking of Src/Fyn actions on fast axonal transport [1]: did not block
blocking of familial Parkinson's disease mutant α-synuclein (Ala30Pro) effects on fast axonal transport [2]: ineffective; also recorded: not effective
blocking of MPP+ effects on fast axonal transport [4]: blocked
prevention of Ala30Pro α-synuclein effect on neurotransmission [8]: not effective
IC50 [9]: 7 nM
IC50 [10]: 7 nM
IC50 [11]: 6 nM
IC50 [12]: 10 nM
IC50 [13]: 60 nM
IC50 [14]: 20000 nM

Compound: Oc1ccc(C=Cc2cc(O)cc(O)c2)cc1 [resveratrol]
IC50 [15]: 52000 nM
IC50 [16]: 36000 nM
effects against the autophosphorylation reactions of PKC isozyme subfamily members [17]: negligible effects

Compound: Fyn: Src-Family nonreceptor tyrosine kinase perfused into axoplasm
effect on fast axonal transport (retrograde RT / anterograde AT), in words [18]: indistinguishable from the effects of PKCs; also recorded: a rapid increase in the amount and rate of retrograde transport accompanied by a slow decline in anterograde transport

Compound: CC(C)(C)n1nc(-c2ccc(Cl)cc2)c2c(N)ncnc21 [PP2, 4-amino-5-(4-chlorophenyl)-7-(t-butyl) pyrazolo[3,4-d-]pyrimidine]
blocking of familial Parkinson's disease mutant α-synuclein (Ala30Pro) effects on fast axonal transport [2]: effective at blocking; also recorded: blocked
blocking of LB filament (wild-type α-synuclein) effects on fast axonal transport [3]: blocked
blocking of MPP+ effects on fast axonal transport [4]: did not
prevention of Ala30Pro α-synuclein effect on neurotransmission [8]: prevented
